ChEMBL document CHEMBL3885881, “DrugMatrix”

Species on record: Rattus norvegicus
Test: DrugMatrix - Regimen: Daily Repeat
Type: toxicity, organism-based, Sprague-Dawley
Parameters: regimen Daily Repeat, gender Male, age 6-8 weeks
Details: in vivo, po, route oral GAVAGE, vehicle 100 % WATER; for ABSOLUTE BASOPHIL / ABSOLUTE EOSINOPHIL / ABSOLUTE LYMPHOCYTE / ABSOLUTE MONOCYTE / ABSOLUTE SEGMENTED NEUTROPHIL / BASOPHIL / EOSINOPHIL / ERYTHROCYTE COUNT / HEMATOCRIT / HEMOGLOBIN / LEUKOCYTE COUNT / LYMPHOCYTE / MEAN CORPUSCULAR HEMOGLOBIN / MEAN CORPUSCULAR HEMOGLOBIN CONCENTRATION / MEAN CORPUSCULAR VOLUME / MONOCYTE / NEUTROPHIL / NUCLEATED RED BLOOD CELLS / PLATELET COUNT: tissue Blood; for ALANINE AMINOTRANSFERASE / ALBUMIN / ALKALINE PHOSPHATASE / ASPARTATE AMINOTRANSFERASE / BLOOD UREA NITROGEN / CARBON DIOXIDE / CHLORIDE / CHOLESTEROL / CREATINE PHOSPHOKINASE / CREATININE / GLUCOSE / LACTATE DEHYDROGENASE / LIPASE / PHOSPHORUS / POTASSIUM / SODIUM / TOTAL BILIRUBIN / TOTAL PROTEIN / URIC ACID: tissue Plasma
[1] = 0 mg/kg, 72 h, dose level Control, time 3 day
[2] = 0 mg/kg, 120 h, dose level Control, time 5 day
[3] = 100 mg/kg, 72 h, dose level Low, time 3 day

`CC(C)(S)[C@@H](N)C(=O)O` [PENICILLAMINE] was tested, and the “ABSOLUTE BASOPHIL” value [1] was 0 CELLS/uL, the “ABSOLUTE EOSINOPHIL” value [1] was 0 CELLS/uL and the “ABSOLUTE LYMPHOCYTE” value [1] was 7802.17 CELLS/uL. The “ABSOLUTE MONOCYTE” value [1] was 13.5 CELLS/uL, the “ABSOLUTE SEGMENTED NEUTROPHIL” value [1] was 617.67 CELLS/uL and the BASOPHIL [1] was 0%. For the same compound, the EOSINOPHIL [1] was 0%, the “ERYTHROCYTE COUNT” value [1] was 5.35 x10E6/uL and the HEMATOCRIT [1] was 33.02%. The HEMOGLOBIN [1] was 12.88 G/DL, the “LEUKOCYTE COUNT” value [1] was 8.43 x10E3/uL and the LYMPHOCYTE [1] was 92.67%. The “MEAN CORPUSCULAR HEMOGLOBIN” value [1] was 24.12 pg, the “MEAN CORPUSCULAR HEMOGLOBIN CONCENTRATION” value [1] was 39.03 G/DL and the “MEAN CORPUSCULAR VOLUME” value [1] was 61.8 fL. For the same compound, the MONOCYTE [1] was 0.17%, the NEUTROPHIL [1] was 7.17% and the “NUCLEATED RED BLOOD CELLS” value [1] was 0 /100WBC. For the same compound, the “PLATELET COUNT” value [1] was 1124.83 x10E3/uL, the “ALANINE AMINOTRANSFERASE” value [1] was 54.17 u/L and the ALBUMIN [1] was 4.07 G/DL. The “ALKALINE PHOSPHATASE” value [1] was 383.83 u/L, the “ASPARTATE AMINOTRANSFERASE” value [1] was 82.17 u/L and the “BLOOD UREA NITROGEN” value [1] was 13.67 mg/dL. For the same compound, the “CARBON DIOXIDE” value [1] was 31 mmol/L, the CHLORIDE [1] was 100.83 MEQ/L and the CHOLESTEROL [1] was 65.17 mg/dL. The “CREATINE PHOSPHOKINASE” value [1] was 228.33 u/L, the CREATININE [1] was 0.12 mg/dL and the GLUCOSE [1] was 148 mg/dL. The “LACTATE DEHYDROGENASE” value [1] was 97.83 u/L, the LIPASE [1] was 9.17 u/L and the PHOSPHORUS [1] was 9.75 mg/dL. For the same compound, the POTASSIUM [1] was 5.85 MEQ/L, the SODIUM [1] was 147.02 MEQ/L and the “TOTAL BILIRUBIN” value [1] was 0.18 mg/dL. For the same compound, the “TOTAL PROTEIN” value [1] was 6.1 G/DL, the “URIC ACID” value [1] was 0.5 mg/dL and the “ABSOLUTE BASOPHIL” value [2] was 0 CELLS/uL. For the same compound, the “ABSOLUTE EOSINOPHIL” value [2] was 0 CELLS/uL, the “ABSOLUTE LYMPHOCYTE” value [2] was 10538 CELLS/uL and the “ABSOLUTE MONOCYTE” value [2] was 15.83 CELLS/uL. For the same compound, the “ABSOLUTE SEGMENTED NEUTROPHIL” value [2] was 762.83 CELLS/uL, the BASOPHIL [2] was 0% and the EOSINOPHIL [2] was 0%. The “ERYTHROCYTE COUNT” value [2] was 5.49 x10E6/uL, the HEMATOCRIT [2] was 34.63% and the HEMOGLOBIN [2] was 13.72 G/DL. For the same compound, the “LEUKOCYTE COUNT” value [2] was 11.32 x10E3/uL, the LYMPHOCYTE [2] was 92.67% and the “MEAN CORPUSCULAR HEMOGLOBIN” value [2] was 24.97 pg. The “MEAN CORPUSCULAR HEMOGLOBIN CONCENTRATION” value [2] was 39.57 G/DL, the “MEAN CORPUSCULAR VOLUME” value [2] was 63.05 fL and the MONOCYTE [2] was 0.17%. The NEUTROPHIL [2] was 7.17%, the “NUCLEATED RED BLOOD CELLS” value [2] was 0.17 /100WBC and the “PLATELET COUNT” value [2] was 802 x10E3/uL. The “ALANINE AMINOTRANSFERASE” value [2] was 50.5 u/L, the ALBUMIN [2] was 4.07 G/DL and the “ALKALINE PHOSPHATASE” value [2] was 336.83 u/L. For the same compound, the “ASPARTATE AMINOTRANSFERASE” value [2] was 81 u/L, the “BLOOD UREA NITROGEN” value [2] was 14.17 mg/dL and the “CARBON DIOXIDE” value [2] was 32 mmol/L. For the same compound, the CHLORIDE [2] was 98.33 MEQ/L, the CHOLESTEROL [2] was 69.17 mg/dL and the “CREATINE PHOSPHOKINASE” value [2] was 253.33 u/L. The CREATININE [2] was 0.13 mg/dL, the GLUCOSE [2] was 153.67 mg/dL and the “LACTATE DEHYDROGENASE” value [2] was 157 u/L. The LIPASE [2] was 9 u/L, the PHOSPHORUS [2] was 10.78 mg/dL and the POTASSIUM [2] was 6.11 MEQ/L. For the same compound, the SODIUM [2] was 144.57 MEQ/L, the “TOTAL BILIRUBIN” value [2] was 0.15 mg/dL and the “TOTAL PROTEIN” value [2] was 6.05 G/DL. For the same compound, the “URIC ACID” value [2] was 0.73 mg/dL, the “ABSOLUTE BASOPHIL” value [3] was 0 CELLS/uL and the “ABSOLUTE EOSINOPHIL” value [3] was 0 CELLS/uL. The “ABSOLUTE LYMPHOCYTE” value [3] was 8040.67 CELLS/uL, the “ABSOLUTE MONOCYTE” value [3] was 62.33 CELLS/uL and the “ABSOLUTE SEGMENTED NEUTROPHIL” value [3] was 563.67 CELLS/uL. The BASOPHIL [3] was 0%, the EOSINOPHIL [3] was 0% and the “ERYTHROCYTE COUNT” value [3] was 5.32 x10E6/uL. The HEMATOCRIT [3] was 34.33%, the HEMOGLOBIN [3] was 13 G/DL and the “LEUKOCYTE COUNT” value [3] was 8.67 x10E3/uL. For the same compound, the LYMPHOCYTE [3] was 92.67%, the “MEAN CORPUSCULAR HEMOGLOBIN” value [3] was 24.53 pg and the “MEAN CORPUSCULAR HEMOGLOBIN CONCENTRATION” value [3] was 37.9 G/DL. For the same compound, the “MEAN CORPUSCULAR VOLUME” value [3] was 64.67 fL, the MONOCYTE [3] was 0.67% and the NEUTROPHIL [3] was 6.67%. For the same compound, the “NUCLEATED RED BLOOD CELLS” value [3] was 0 /100WBC, the “PLATELET COUNT” value [3] was 991.33 x10E3/uL and the “ALANINE AMINOTRANSFERASE” value [3] was 51 u/L. For the same compound, the ALBUMIN [3] was 4.03 G/DL, the “ALKALINE PHOSPHATASE” value [3] was 403.33 u/L and the “ASPARTATE AMINOTRANSFERASE” value [3] was 82.33 u/L. For the same compound, the “BLOOD UREA NITROGEN” value [3] was 13.67 mg/dL, the “CARBON DIOXIDE” value [3] was 32.33 mmol/L and the CHLORIDE [3] was 100.33 MEQ/L. For the same compound, the CHOLESTEROL [3] was 73.33 mg/dL, the “CREATINE PHOSPHOKINASE” value [3] was 332 u/L and the CREATININE [3] was 0.11 mg/dL. For the same compound, the GLUCOSE [3] was 145.67 mg/dL, the “LACTATE DEHYDROGENASE” value [3] was 165 u/L and the LIPASE [3] was 9 u/L. The PHOSPHORUS [3] was 10 mg/dL, the POTASSIUM [3] was 5.88 MEQ/L and the SODIUM [3] was 145.23 MEQ/L. The “TOTAL BILIRUBIN” value [3] was 0.13 mg/dL, the “TOTAL PROTEIN” value [3] was 5.93 G/DL and the “URIC ACID” value [3] was 0.73 mg/dL.
